≈ marks a conversion by molar mass, not a printed value.
Assays:
[1] = tested on: isolated strips of guinea pig lung; assay: Antagonism of LTD4-induced contraction of isolated strips of guinea pig lung; conditions: Cavia porcellus; agonist LTD4; read-out: Anticontractile effect (lung), concentration range corresponding to the IC50 value
Excerpt: (§1) The test was based on the same principle as the test indicated in Pharmacological Test 5; however, strips of lung were used in this case.
(§2) The guinea pig was sacrificed under anesthesia with laughing gas. The entire lung tract was cut out starting from the trachea. The lobes of the lungs were cut in circular fashion to produce strips about 3 mm wide. The strips of the upper lobes were divided up in order to obtain a total of six strips of approximately equal size. The strips were suspended in the organ baths under a preload of 4 g. Modified Krebs-Henseleit solutions were used as nutrient solution. When platelet activating factor (PAF) was used as agonist, the composition of this solution corresponded to that for the agonist SP in Pharmacological Test 5; a Krebs-Henseleit solution as in the case of the agonist KCI (Pharm. Test 5) was used for the agonist LTD4. 95% by volume 02, 5% by volume CO2 was bubbled through the bath, and the bath temperature was 37° C. The test is carried out by a therapeutic/cumulative method with dose levels of 1, 3, 6 and 10 μg/ml.
(§3) The test animals, organ bath, vehicle, mode of administration corresponded to that stated for Pharmacological Test 5.

phosphodiesterase III = assay: Inhibition of phosphodiesterase III activity; format: biochemical; conditions: 100 μM
Description: The test was carried out with the phosphodiesterase of Boehringer Mannheim (Mannheim, Germany), Order no. 108 243 by the method of T. SAEKI, I. SAITO, Biochem. Pharm. 46, No. 5, […], pages 833-839.

[2] = tested on: isolated guinea pig trachea; assay: Antagonism of KCl-induced contraction of the isolated guinea pig trachea; conditions: Cavia porcellus; agonist KCl; read-out: Anticontractile effect (trachea), concentration range needed to bring about a dilatation corresponding to the ED50 range
Excerpt: (§4) The compounds according to the invention are used as antagonists of the contraction of various parts of organs, in this case the isolated guinea pig trachea. The agonists used were KCl, PGF2a, calcium ionophore A23187 and substance P:
Products with a non-specific effect generally show a spasmolytic effect with respect to all agonists. KCI is representative here of non-specific, receptor-independent contraction because KCl-induced contractions are produced predominantly physically, that is to say by increasing the K+ concentration in the outside medium, and change the resting potential of the cell.
(§5) The guinea pigs were sacrificed by lethal anesthesia with laughing gas. The trachea was dissected out over its entire length and cut into 15 individual cartilage rings. In each case five rings were connected together to form a chain and fixed in an organ bath under a preload of 3 g. After an equilibration period of 45 minutes, a contraction was induced with the agonist. Cumulative addition of the antagonist (test product) took place at the plateau 5 of the maximum. Evaluation took place as % change in strength based on the maximum contraction. The test was carried out at 37° C., and the physiological nutrient solution used was a modified Krebs-Henseleit solution through which 95% by volume 02 and 5% by volume CO2 was bubbled.
(§6) Test animals: Albino guinea pigs (102), weight: 200 to 300 g, male or female
(§7) Composition of the organ bath (nutrient solution):
(§8) Vehicle: Double-distilled water, ethanol or isopropanol; Administration: into the organ bath Number of administrations: cumulative, single doses for SP

[3] = tested on: isolated strips of guinea pig lung; assay: Antagonism of PAF-induced contraction of isolated strips of guinea pig lung; conditions: Cavia porcellus; agonist PAF; read-out: Anticontractile effect (lung), concentration range corresponding to the IC50 value
Excerpt: as §1, §2, §3

[4] = tested on: isolated guinea pig trachea; assay: Antagonism of calcium ionophore A23187-induced contraction of the isolated guinea pig trachea; conditions: Cavia porcellus; agonist Ca ionophore A23187; read-out: Anticontractile effect (trachea), concentration range needed to bring about a dilatation corresponding to the ED50 range
Excerpt: as §4
c) Calcium ionophore A23187 (Calbiochem, Bad Soden) brings about, due to increased uptake of calcium ions, an activation of all calcium-dependent signal cascades in the cell.
as §5, §6, §7, §8

RAW 264.7 cells [5] = assay: Release of tumor necrosis factor α from RAW 264.7 cells; format: cell-based; conditions: Mus musculus, RAW264.7, LPS, read-out: inhibition of TNFα formation compared with an untreated control
Description: (§9) Culture medium: DMEM+10% FCS+penicillin/streptomycin (50 U/SO μg/ml)
(§10) Culture conditions: 37° C., 10% CO2
(§11) Culture dishes: 24-well dishes
(§12) In each case 10^6 cells/ml/well were incubated for 24 hours (h)
(§13) Addition of 10 μl of test substance (=100 μM in the test, dissolved in double-distilled water)
Addition of 50 μl of lipopolysaccharide (LPS) from E. coli (=10 pg/ml in the test, dissolved in culture medium) […]
Tumor necrosis factor α was determined using a Factortest X mouse TNFα ELISA kit from Genzyme (R(1sselsheim, Geromany), Order no. 80-2802-00.

[6] = tested on: isolated guinea pig trachea; assay: Antagonism of substance P-induced contraction of the isolated guinea pig trachea; conditions: Cavia porcellus; agonist substance P; read-out: Anticontractile effect (trachea), concentration range needed to bring about a dilatation corresponding to the ED50 range
Excerpt: as §4
Antagonism is possible on the one hand by specific receptor antagonists, and on the other hand by inhibition of the downstream signal pathway.
as §5, §6, §7, §8

RAW 264.7 cells [7] = assay: Release of substance P from RAW 264.7 cells; format: cell-based; conditions: Mus musculus, RAW264.7, stimulated by 50 ng of LPS for 4 hours, read-out: inhibition of substance P production
Description: as §9, §10, §11, §12, §13
Release of substance P took place as described for TNFα, but the cells were stimulated by 50 ng of LPS for 4 hours. Substance P was determined using a substance P RIA test kit from Peninsula Laboratories (Belmont, USA) Test no. RIK-7451.

[8] = tested on: isolated guinea pig trachea; assay: Antagonism of PGF2α-induced contraction of the isolated guinea pig trachea; conditions: Cavia porcellus; agonist PGF2α; read-out: Anticontractile effect (trachea), concentration range needed to bring about a dilatation corresponding to the ED50 range
Excerpt: as §4
Inhibition of contractions induced by this cyclooxygenase product is possible only by competitive antagonism at the receptor or of the downstream signal pathway.
as §5, §6, §7, §8

Wistar-Lewis rats = assay: Adjuvant arthritis; format: in vivo; conditions: 12.6 mg/kg intraperitoneal, twice a day for 18 days
Description: The investigations were carried out as described in EP 50 42 740.

rat liver microsomes = assay: Inhibition of microsomal lipid peroxidation; format: biochemical; conditions: 37° C., 10 minutes
Description: Obtaining rat liver microsomes: All steps were carried out at 0° C. The liver from a rat was thoroughly rinsed with 0.9% NaCl solution to remove all the hemoglobin. The liver wascut into pieces and then treated in a Potter in 10 mM Tris/HCl pH 7.4; 250 mM sucrose (10 ml of buffer/g of liver). The first centrifugation was at 600 x g for 55 minutes to remove cell detritus. The supernatant was then centrifuged at 12000 x g for 10 minutes and was adjusted with solid CaCI2 (117.6 mg/100 ml) to a concentration of 8 mM. A microsome pellet was obtained by centrifugation at 25000 x g (15 minutes). This pellet was ohomogenized in the same volume of buffer (10 mM Tris/BCI pH 7.4; 150 mMKCl) and again centrifuged at 25000 x g for 15 minutes.
Peroxidation by rat liver microsomes: A test mixture consisted of 20 μl of microsomes (100 mg/ml), see above, dissolved in a buffer (250 mM Tris/HCI pB 6.6; 750 mMKCl), 10 iL1 of 50 mM MgCI2, 10 μl of 200 mM isocitric acid, 10 μl of 4 mM NADP (3.028 mg/ml in water), 10 μl of 25 mM niacinamide, 10 μl of isocitrate dehydrogenase (Boehringer, diluted 1:100) and 20 μl of water or test substance. The reaction was started with 10 μl of 0.25 mM FeSO4. […] The malonaldehyde which was formed was converted by adding 500 μl of 0.67 percent thiobarbituric acid and incubating at 90° C. for 30 min into a pink-colored compound which was measured in a photometer at 532 nm. […]

matrix metalloproteases = assay: Inhibition of matrix metalloproteases (MMP from rabbit synoviocytes HIG-82, fluorescent substrate); format: biochemical
Description: After confluent cell growth, the MMP expression was induced in the serum-free 3F12 HAM medium by adding 0.3 μmol/l phorbol 12-myristate 13-acetate. The supernatant was removed after incubating at 37° C. for 20 hours.
Activation of the MMP: The supernatant was activated with trypsin (5 μg/ml). After 15 minutes at 37° C., the activation was stopped by adding 1 mmol/l phenylmethylsulfonyl fluoride (PMSF) and incubating for a further 10 minutes. The total volume of the mixture was 210 μl.
The test substance was added in the stated concentration (see table). […] The reaction was stopped after 30 minutes by adding 10 mmol/l EDTA. The total-volume of the mixture was 320 μl . The parameters measured were the fluorescence intensities at […]. In order to take account of the possible intrinsic fluorescence of the test substances, the fluorescence intensities from parallel measurements without substrate were subtracted from the measurements with substrate. All the steps took place at 20° C.

interleukin-1β = assay: Inhibition of release of interleukin-1β from human mononuclear cells; format: cell-based; conditions: 10 .parallel.mol/l (so in the source), IL-1β, LPS-stimulated, 20 to 22 hours
Description: Obtaining mononuclear cells from human blood: 10 ml of human blood stabilized with 1 ml of 3.8 percent sodium citrate solution were diluted with 10 ml of PM16 (Serra, Heidelberg), and an underlayer of 15 ml of Lymphoprep (Dr. Molter GmbH, Heidelberg) was introduced. The samples were centrifuged at 400 x g (Minifuge 2 Heraeus, Osterode) at room temperature for 40 minutes. The mononuclear cells were visible as a white ring at the Lymphoprep/plasma boundary. This ring was cautiously removed with a syringe, diluted with the same volume of PM16 and centrifuged at 400 x g for 10 minutes. The precipitate was washed with ^~ 10 ml of RPMI1640 (+300 mg/I L-glutamine, Gibco, Eggenstein). After the cells had been suspended in ^~ 1 ml of RPMI1640 (+300 mg/I L-glutamine, +25 mM HEPES, +100 μg/ml streptomycin, +100 μg/ml penicillin), the cell density was determined with a JT Coulter Counter (Coulter Diagnostics) and adjusted to 5.10^6 /ml. 90% of the resulting cells were lymphocytes and 10% were monocytes.
Inhibition of release of interleukin-1β: 230 μl of mononuclear cells were incubated with 10 μl of test substance (10 μM in dimethyl sulfoxide (DMSO)/water=1/10) and 10 μl of a lipopolysaccharide solution (500 μg dissolved in 1 ml of DMSO and diluted 1/10 with water before starting the test, from Salmonella abortus equi, (Sigma, Deisenhofen) at 37° C., 5% CO2 for 20 to 22 hours. The samples were cooled to 0° C. in an ice bath and centrifuged in a Sigma centrifuge (2 minutes; 2000 revolutions per minute (rpm)). Aliquots of the supernatant were determined using a commercially available ELISA 5(Biermann, Bad Nauheim).
All active substances were tested at a concentration of 10 .parallel.mol/l. IL-1β release was tested in each case.

Structure (SMILES): CCOP(=O)(OCC)/C(C#N)=C\c1ccc(OC)c(OC)c1 [Compound 37, Z- and E-2-(diethoxyphosphinyl)-3-(3,4-dimethoxyphenyl) acrylonitrile]
- IC50 [1]: 0.1 to 0.3 µg/mL (≈ 0.307 to 0.922 µM)
- inhibition of enzyme activity (phosphodiesterase III) (phosphodiesterase III): 39%
- EC50 [2]: ~10 µg/mL (≈ 30.7 µM)
- IC50 [3]: 1 to 3 µg/mL (≈ 3.07 to 9.22 µM)
- EC50 [4]: ~1 µg/mL (≈ 3.07 µM)
- inhibition at 100 µM (RAW 264.7 cells [5]; incubation for 2.5 hours): 55%
- EC50 [6]: ~3 µg/mL (≈ 9.22 µM)
- inhibition at 100 µM (RAW 264.7 cells [7]): 100%
- EC50 [8]: ~3 µg/mL (≈ 9.22 µM)

Structure (SMILES): CCOP(=O)(OCC)/C(C#N)=C/c1ccc(OC)c(OC)c1 [Compound 38, Z- and E-2-(diethoxyphosphinyl)-3-(3,4-dimethoxyphenyl) acrylonitrile]
- IC50 [1]: ~1 µg/mL (≈ 3.07 µM)
- EC50 [2]: > 10 µg/mL
- inhibition of the increase in the paw volume compared with an untreated control group (Wistar-Lewis rats): 98%
- IC50 [3]: < 0.1 µg/mL
- EC50 [4]: ~3 µg/mL (≈ 9.22 µM)
- inhibition at 100 µM (RAW 264.7 cells [5]; incubation for 4 h): 16%
- EC50 [6]: 3 to 10 µg/mL (≈ 9.22 to 30.7 µM)
- inhibition at 100 µM (RAW 264.7 cells [7]): 100%
- EC50 [8]: 1 to 3 µg/mL (≈ 3.07 to 9.22 µM)

Structure (SMILES): CCOC(=O)C(=Cc1ccc(O)c(O)c1)P(=O)(OCC)OCC [Compound 47, Ethyl 2-(diethoxyphosphinyl)-3-(3,4-dihydroxyphenyl) propenoate]
- IC50 (rat liver microsomes): 2100 nM
- Inhibition of MMP, Inhibition (%) (matrix metalloproteases; 10 μM): 13%
- Inhibition of MMP, Inhibition (%) (matrix metalloproteases; 30 μM): 24%
- Inhibition of MMP, Inhibition (%) (matrix metalloproteases; 100 μM): 55%
- inhibition at 10 µM (interleukin-1β): 80%
